Test results: patent US6545050B1, “Aryl sulphonamide amino acid esters and analogues” (Bayer Aktiengesellschaft, priority 1998, dated 2003)
Structures can show the parent of a compound that is named as a salt.

Key:
rat CB1 receptor = target: T1, rat CB1 receptor (Rattus norvegicus, UniProt P20272); assay: CB1 luciferase reporter gene test (CHOluc9 cells stably transfected with rat CB1); type: cell-based; details: forskolin stimulated
T1 construct: contains an open reading frame of 1419 base pairs which corresponds to a protein of 473 amino acids; expressed in transfected cells; host or cells: CHOluc9 reporter cells stably transfected with plasmid CMV-RH (rat CB1 cDNA in pRc/CMV)
Procedure: CB1—Luciferase Reporter Gene Test
1. Cloning of the Rat Cannabinoid Receptor CB1
Total RNA from rat brain (the tissue was taken from freshly killed animals and shock-frozen in liquid nitrogen) was isolated by acidic guanidinium thiocyanate/phenol/chloroform extraction (J. Biol. Chem. 1979, 18, 5294) and converted into cDNA by means of reverse transcriptase and random primers (in each case from Invitrogen). The polymerase chain reaction (PCR, conditions: 4 min 94° C., 1H; 1 min 94° C.; 2 min 53° C.; 1 min 72° C., 50 cycles; 1 min 94° C., 2 min 53° C., 4 min 72° C., 1H) was carried out in a Perkin Elmer thermocycler using the enzyme Taq polymerase (Perkin Elmer); the oligonucleotide primers employed (bases 99 to 122: 5′63′, “down”; 1556-1575: 3′75′, “up”) were derived from the published sequence of the rat cannabinoid receptor (Nature 1990, 346, 561) and were synthesized on a DNA synthesizer, model 1380 from Applied Biosystems. One part of the PCR reaction was separated in a 1% strength agarose gel in 1H TBE buffer and then stained with ethidium bromide, only one band having the expected length being visible (approximately 1.5 kb). This PCR product was subcloned into the TA cloning vector (Invitrogen) and the nucleotide sequence of the insert was determined by the dideoxynucleotide chain termination reaction using T7DNA polymerase (Sequenase, USA/Amersham). The insert has a length of 1477 base pairs and contains an open reading frame of 1419 base pairs which corresponds to a protein of 473 amino acids. The number of base pairs, the position of the open reading frame and the number of amino acids agree with the published sequence. Computer analyses were carried out with the aid of the GCG software suite (Genetic Computer Group). The cDNA insert was subcloned into the expression vector pRc/CMV (Invitrogen) after partial digestion with HindIII and NotI (Biolabs). This construct (plasmid CMV-RH) was employed for transfection experiments.
2. Stable Transfection of the CHOluc9 Reporter Cells
CHOluc9 cells were cultured in 50% Dulbecco's modified Eagle medium/50% F-12 (DMEM/F12) which contained 10% foetal calf serum (FCS). Transfections were prepared in 6-well plates. 7.5 μg of Qiagen-purified CMV-RH plasmid DNA were added per […] with the DOTAP transfection system, corresponding to the experimental protocol of the manufacturer (Boehringer Mannheim). Transfected cells were selected using 1 mg/ml G418 and individual clones were obtained by limiting dilution in 96-well plates. Cell lines which express the cannabinoid receptor were identified for the inhibition of reporter gene expression after incubation with the cannabinoid receptor agonist, WIN-55,212-2, in the presence of forskolin. Several stably transfected and subcloned cell lines were further characterized by means of RT-PCR, as described under 1.
3. Test Optimization and Pharmacological Characterization of the CHOCB1 Reporter Cell Line
With the aim of high sensitivity and reproducibility, low variance and high suitability for carrying out on the robotic system, the luciferase test was optimized by variation of several test parameters, such as, for example, cell density, duration of the growth phase and the test incubation, forskolin concentration, medium composition. The following test protocol was used for pharmacological characterization of the cells and for robot-assisted substance screening: the stock cultures were cultured in 50% Dulbecco's modified Eagle medium/50% F-12 (DMEM/F12) with 10% FCS at 37° C. under 10% CO2 and in each case split 1:10 after 2 to 3 days. Test cultures were inoculated into 96-well plates at 5000 cells per well and cultured at 37° C. for 70 hours. The cultures were then carefully washed with phosphate-buffered saline and reconstituted using serum-free ultra-CHO medium (Bio-Whittaker). The substances dissolved in DMSO were diluted 1H in medium and pipetted into the test cultures (maximum DMSO final concentration in the test batch: 0.5%). […]

[1] = Solubility determination by precipitation method in physiological saline; type: physicochemical; details: saline or isotonic, kinetic from dmso stock, 25° C., shaken 1 hour, HPLC
Procedure: To determine the solubility, a precipitation method was used:
10 mg of the test substance are completely dissolved in 50 μl of DMSO (stock solution). From this solution, 20 μl are added to 2000 μl of physiological saline. This solution in turn is shaken at 25° C. in a Thermomixer Comfort (from Eppendorf) at 1400 rpm for 1 hour, for equilibration.
The precipitated fractions of the test substance are centrifuged off at 14,000 rpm for 5 min, using a Biofuge 15 from Heraeus. 1300 μl of the supernatant are again centrifuged using a Microfuge from Beckmann, at 45,000 rpm=125,000 g.
10 μl of this centrifugation supernatant are then diluted with 1000 μl of DMSO, and this solution is measured by HPLC. (Hewlett Packard 1090, method: gradient of 100% PBS buffer pH=4 over 15 min to 10% buffer/90% acetonitrile, column: RP18)
The measured peak area of the HPLC determination is converted into the substance concentration using a calibration curve. For the calibration curve, 20 μl of the stock solution are successively diluted with DMSO in such a manner that 5 concentrations of from 2.5 mg/l to 2000 mg/l are obtained. These solutions are likewise measured by HPLC (method see above) and the peak areas are plotted against the concentrations.

rats = assay: Rat hypothermia - agonism testing; type: in vivo; details: i.v. administration
Procedure: Five minutes after determination of the basal body temperature via an oesophageal temperature probe, the test substance is administered (i.v.). A control group receives only the solvent of the test substances, likewise i.v. The body temperature is measured 7.5, 15, 30 and 60 minutes after i.v. administration. The group size per dose is 5-7 animals (rats).

T1 sequence (P20272 whole entry): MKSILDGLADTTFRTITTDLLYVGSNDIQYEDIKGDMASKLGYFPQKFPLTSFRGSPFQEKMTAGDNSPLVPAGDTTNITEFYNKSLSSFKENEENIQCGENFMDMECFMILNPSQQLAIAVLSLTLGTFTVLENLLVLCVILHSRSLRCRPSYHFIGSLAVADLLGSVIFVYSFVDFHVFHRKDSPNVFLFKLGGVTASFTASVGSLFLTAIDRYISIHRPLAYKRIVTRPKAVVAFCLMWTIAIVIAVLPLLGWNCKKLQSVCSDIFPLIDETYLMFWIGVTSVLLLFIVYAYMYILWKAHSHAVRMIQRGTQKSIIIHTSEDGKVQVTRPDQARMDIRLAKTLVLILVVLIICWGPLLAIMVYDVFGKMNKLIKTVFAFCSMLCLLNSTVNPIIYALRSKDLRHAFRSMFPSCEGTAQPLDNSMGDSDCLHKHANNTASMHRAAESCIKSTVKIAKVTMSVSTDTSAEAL

CC(C)(C)OC(=O)NCC(=O)OC[C@@H]1Cc2cccc(Oc3cccc(OS(=O)(=O)CCCC(F)(F)F)c3)c2C1 [Example 1, (R)-3-[2-(N-tert-butyloxycarbonylglycinyl)-oxymethyl-indanyl-4-oxy]-phenyl 4,4,4-trifluoro-1-butanesulphonate] gave an IC50 (rat CB1 receptor) of 0.35 nM.
Compound CC(C)(C)OC(=O)NCCCCCCC(=O)OC[C@@H]1Cc2cccc(Oc3cccc(OS(=O)(=O)CCCC(F)(F)F)c3)c2C1 [Example 2, (R)-3-[2-(7-N-tert-Butyloxycarbonylaninoheptanoyloxymethyl)-indanyl-4-oxy]-phenyl 4,4,4-trifluoro-1-butanesulphonate] has an IC50 (rat CB1 receptor) of 0.13 nM.
In the case of NCC(=O)OC[C@@H]1Cc2cccc(Oc3cccc(OS(=O)(=O)CCCC(F)(F)F)c3)c2C1 [Example 5, (R)-3-(2-Glycinyl-oxymethyl)-indanyl-4-oxy)-phenyl 4,4,4-trifluoro-1-butanesulphonate hydrochloride], the solubility at 1 h [1] is reported as 720 µg/mL, the IC50 (rat CB1 receptor) is reported as 0.11 nM and the “ED−1° C. (effective dose for 1° C. body temperature reduction)” value (rats) is reported as 0.03 mg/kg.
NCCCCCCC(=O)OC[C@@H]1Cc2cccc(Oc3cccc(OS(=O)(=O)CCCC(F)(F)F)c3)c2C1 [Example 6, (R)-3-[2-(7-Aminoheptanoyloxymethyl)-indanyl-4-oxy)-phenyl 4,4,4-trifluoro-1-butanesulphonate hydrochloride] gave an IC50 (rat CB1 receptor) of 0.85 nM.
Compound NCCC(=O)OC[C@@H]1Cc2cccc(Oc3cccc(OS(=O)(=O)CCCC(F)(F)F)c3)c2C1 [Example 7, (R)-3-[2-(3-Aminopropanoyloxymethyl)-indanyl-4-oxy)-phenyl 4,4,4-trifluoro-1-butanesulphonate hydrochloride] has an IC50 (rat CB1 receptor) of 0.4 nM.
For CC(C)[C@H](N)C(=O)OC[C@@H]1Cc2cccc(Oc3cccc(OS(=O)(=O)CCCC(F)(F)F)c3)c2C1 [Example 8, (R)-3-[2-((S)-Valinyloxymethyl)-indanyl-4-oxy]-phenyl 4,4,4-trifluoro-1-butanesulphonate hydrochloride], the IC50 (rat CB1 receptor) was 0.2 nM.
